Measurements: ChEMBL document CHEMBL1201862, “PubChem BioAssay data set” (2004)
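Exposure lasted 48 hours, with cells grown in 96-well plates and compounds tested at five concentrations. At the GI50, growth is halved.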 The source made the active and inactive calls. Cut-off read from the data, not from the text of the source: active = GI50 up to about 1.1 µM and inactive = higher.

Assays:
Experiment in all cases: DTP human tumour cell line panel, 48 h
786-0 = tested on: 786-0
A549 = tested on: A549
ACHN = tested on: ACHN
CAKI-1 = tested on: CAKI-1
CCRF-CEM = tested on: CCRF-CEM
COLO 205 = tested on: COLO 205
DU-145 = tested on: DU-145
EKVX = tested on: EKVX
HCT-116 = tested on: HCT-116
HL-60 = tested on: HL-60
HOP-62 = tested on: HOP-62
HOP-92 = tested on: HOP-92
HT-29 = tested on: HT-29
Hs-578T = tested on: Hs-578T
IGROV-1 = tested on: IGROV-1
K562 = tested on: K562
KM12 = tested on: KM12
LOX IMVI = tested on: LOX IMVI
M14 = tested on: M14
MCF7 = tested on: MCF7
MDA-MB-231 = tested on: MDA-MB-231
MDA-MB-435 = tested on: MDA-MB-435
MDA-N = tested on: MDA-N
MOLT-4 = tested on: MOLT-4
Malme-3M = tested on: Malme-3M
NCI-H226 = tested on: NCI-H226
NCI-H23 = tested on: NCI-H23
NCI-H460 = tested on: NCI-H460
NCI-H522 = tested on: NCI-H522
NCI/ADR-RES = tested on: NCI/ADR-RES
OVCAR-3 = tested on: OVCAR-3
OVCAR-4 = tested on: OVCAR-4
OVCAR-5 = tested on: OVCAR-5
OVCAR-8 = tested on: OVCAR-8
PC-3 = tested on: PC-3
RPMI-8226 = tested on: RPMI-8226
RXF 393 = tested on: RXF 393
SF-268 = tested on: SF-268
SF-295 = tested on: SF-295
SF-539 = tested on: SF-539
SK-MEL-28 = tested on: SK-MEL-28
SK-MEL-2 = tested on: SK-MEL-2
SK-MEL-5 = tested on: SK-MEL-5
SN12C = tested on: SN12C
SNB-19 = tested on: SNB-19
SNB-75 = tested on: SNB-75
SR = tested on: SR
SW-620 = tested on: SW-620
T47D = tested on: T47D
TK-10 = tested on: TK-10
U-251 = tested on: U-251
UACC-257 = tested on: UACC-257
UACC-62 = tested on: UACC-62
UO-31 = tested on: UO-31
A498 = tested on: A498
BT-549 = tested on: BT-549
HCC 2998 = tested on: HCC 2998
HCT-15 = tested on: HCT-15
SK-OV-3 = tested on: SK-OV-3

For COC(=O)C1Cc2c(OC)ccc(OC)c2C(O)C1C(=O)OC (stereo not drawn), the GI50 (786-0) was > 100 µM (inactive), the GI50 (A549) was > 100 µM (inactive) and the GI50 (ACHN) was > 100 µM (inactive). The GI50 (CAKI-1) was > 100 µM (inactive), the GI50 (CCRF-CEM) was > 100 µM (inactive) and the GI50 (COLO 205) was > 100 µM (inactive). The GI50 (DU-145) was > 100 µM (inactive), the GI50 (EKVX) was > 100 µM (inactive) and the GI50 (HCT-116) was > 100 µM (inactive). For the same compound, the GI50 (HL-60) was > 100 µM (inactive), the GI50 (HOP-62) was > 100 µM (inactive) and the GI50 (HOP-92) was > 100 µM (inactive). For the same compound, the GI50 (HT-29) was > 100 µM (inactive), the GI50 (Hs-578T) was > 100 µM (inactive) and the GI50 (IGROV-1) was > 100 µM (inactive). The GI50 (K562) was > 100 µM (inactive), the GI50 (KM12) was > 100 µM (inactive) and the GI50 (LOX IMVI) was > 100 µM (inactive). For the same compound, the GI50 (M14) was > 100 µM (inactive), the GI50 (MCF7) was > 100 µM (inactive) and the GI50 (MDA-MB-231) was > 100 µM (inactive). The GI50 (MDA-MB-435) was > 100 µM (inactive), the GI50 (MDA-N) was > 100 µM (inactive) and the GI50 (MOLT-4) was > 100 µM (inactive). The GI50 (Malme-3M) was > 100 µM (inactive), the GI50 (NCI-H226) was > 100 µM (inactive) and the GI50 (NCI-H23) was > 100 µM (inactive). The GI50 (NCI-H460) was > 100 µM (inactive), the GI50 (NCI-H522) was > 100 µM (inactive) and the GI50 (NCI/ADR-RES) was > 100 µM (inactive). The GI50 (OVCAR-3) was > 100 µM (inactive), the GI50 (OVCAR-4) was > 100 µM (inactive) and the GI50 (OVCAR-5) was > 100 µM (inactive). The GI50 (OVCAR-8) was > 100 µM (inactive), the GI50 (PC-3) was > 100 µM (inactive) and the GI50 (RPMI-8226) was > 100 µM (inactive). For the same compound, the GI50 (RXF 393) was > 100 µM (inactive), the GI50 (SF-268) was > 100 µM (inactive) and the GI50 (SF-295) was > 100 µM (inactive). For the same compound, the GI50 (SF-539) was > 100 µM (inactive), the GI50 (SK-MEL-28) was > 100 µM (inactive) and the GI50 (SK-MEL-2) was > 100 µM (inactive). For the same compound, the GI50 (SK-MEL-5) was > 100 µM (inactive), the GI50 (SN12C) was > 100 µM (inactive) and the GI50 (SNB-19) was > 100 µM (inactive). For the same compound, the GI50 (SNB-75) was > 100 µM (inactive), the GI50 (SR) was > 100 µM (inactive) and the GI50 (SW-620) was > 100 µM (inactive). For the same compound, the GI50 (T47D) was > 100 µM (inactive), the GI50 (TK-10) was > 100 µM (inactive) and the GI50 (U-251) was > 100 µM (inactive). For the same compound, the GI50 (UACC-257) was > 100 µM (inactive), the GI50 (UACC-62) was > 100 µM (inactive) and the GI50 (UO-31) was > 100 µM (inactive).

For CSc1cc(Cl)c(C)cc1S(=O)(=O)NC(=O)Nc1ccc(Cl)cc1, the GI50 (786-0) was 31.2 µM (inactive), the GI50 (A498) was 38.2 µM (inactive) and the GI50 (A549) was 33.3 µM (inactive). The GI50 (ACHN) was 27.8 µM (inactive), the GI50 (BT-549) was 32 µM (inactive) and the GI50 (CAKI-1) was 41.6 µM (inactive). The GI50 (CCRF-CEM) was 12.6 µM (inactive), the GI50 (COLO 205) was 15.5 µM (inactive) and the GI50 (EKVX) was 32.7 µM (inactive). The GI50 (HCC 2998) was 16 µM (inactive), the GI50 (HCT-116) was 17.5 µM (inactive) and the GI50 (HCT-15) was 20.5 µM. The GI50 (HL-60) was 12.3 µM (inactive), the GI50 (HOP-62) was 24.6 µM (inactive) and the GI50 (HOP-92) was 24.4 µM (inactive). For the same compound, the GI50 (HT-29) was 35.2 µM (inactive), the GI50 (Hs-578T) was 51.8 µM (inactive) and the GI50 (IGROV-1) was 39.6 µM (inactive). The GI50 (K562) was 29.9 µM (inactive), the GI50 (KM12) was 24.1 µM (inactive) and the GI50 (LOX IMVI) was 10.9 µM (inactive). For the same compound, the GI50 (M14) was 39.9 µM (inactive), the GI50 (MCF7) was 30.3 µM (inactive) and the GI50 (MDA-MB-231) was 29.5 µM (inactive). The GI50 (MDA-MB-435) was 38.4 µM (inactive), the GI50 (MDA-N) was 33.5 µM (inactive) and the GI50 (MOLT-4) was 16.8 µM (inactive). For the same compound, the GI50 (Malme-3M) was 31.6 µM (inactive), the GI50 (NCI-H226) was 22 µM (inactive) and the GI50 (NCI-H23) was 18.4 µM (inactive). For the same compound, the GI50 (NCI-H460) was 29.1 µM (inactive), the GI50 (NCI-H522) was 20.4 µM (inactive) and the GI50 (NCI/ADR-RES) was 25.6 µM (inactive). For the same compound, the GI50 (OVCAR-3) was 28 µM (inactive), the GI50 (OVCAR-4) was 40.1 µM (inactive) and the GI50 (OVCAR-5) was 45.3 µM (inactive). The GI50 (OVCAR-8) was 35.6 µM (inactive), the GI50 (PC-3) was 19.9 µM (inactive) and the GI50 (RPMI-8226) was 30.9 µM (inactive). For the same compound, the GI50 (RXF 393) was 22.9 µM (inactive), the GI50 (SF-268) was 35.9 µM (inactive) and the GI50 (SF-295) was 29.6 µM (inactive). The GI50 (SK-MEL-28) was 46.1 µM (inactive), the GI50 (SK-MEL-2) was 25.8 µM (inactive) and the GI50 (SK-MEL-5) was 22.2 µM (inactive). The GI50 (SK-OV-3) was 38.7 µM (inactive), the GI50 (SN12C) was 36.5 µM (inactive) and the GI50 (SNB-19) was 30.5 µM (inactive). The GI50 (SNB-75) was 27.1 µM (inactive), the GI50 (SR) was 21.5 µM (inactive) and the GI50 (SW-620) was 33.7 µM (inactive). For the same compound, the GI50 (TK-10) was 28.5 µM (inactive), the GI50 (U-251) was 36.6 µM (inactive) and the GI50 (UACC-257) was 28.5 µM (inactive). The GI50 (UACC-62) was 0.48 µM (active) and the GI50 (UO-31) was 17 µM (inactive).

With CCOc1cc(NC(C)=O)ccc1C(=O)NN1C(=O)/C(=C/c2cc(OC)c(OC)c(OC)c2)N=C1c1ccccc1 the GI50 (786-0) was > 100 µM (inactive), the GI50 (A498) was > 100 µM (inactive) and the GI50 (A549) was > 100 µM (inactive). The GI50 (ACHN) was > 100 µM (inactive), the GI50 (BT-549) was 16.3 µM (inactive) and the GI50 (CAKI-1) was > 100 µM (inactive). The GI50 (CCRF-CEM) was > 100 µM (inactive), the GI50 (COLO 205) was > 100 µM (inactive) and the GI50 (EKVX) was > 100 µM (inactive). For the same compound, the GI50 (HCC 2998) was > 100 µM (inactive), the GI50 (HCT-116) was > 100 µM (inactive) and the GI50 (HCT-15) was > 100 µM. The GI50 (HL-60) was > 100 µM (inactive), the GI50 (HOP-92) was 23 µM (inactive) and the GI50 (HT-29) was > 100 µM (inactive). For the same compound, the GI50 (Hs-578T) was > 100 µM (inactive), the GI50 (IGROV-1) was > 100 µM (inactive) and the GI50 (K562) was > 100 µM (inactive). For the same compound, the GI50 (KM12) was 37.2 µM (inactive), the GI50 (LOX IMVI) was > 100 µM (inactive) and the GI50 (M14) was 64.9 µM (inactive). For the same compound, the GI50 (MCF7) was > 100 µM (inactive), the GI50 (MDA-MB-435) was > 100 µM (inactive) and the GI50 (MDA-N) was > 100 µM (inactive). The GI50 (MOLT-4) was > 100 µM (inactive), the GI50 (Malme-3M) was 53.5 µM (inactive) and the GI50 (NCI-H226) was > 100 µM (inactive). The GI50 (NCI-H23) was > 100 µM (inactive), the GI50 (NCI-H460) was 91.6 µM (inactive) and the GI50 (NCI-H522) was 28.3 µM (inactive). The GI50 (NCI/ADR-RES) was > 100 µM (inactive), the GI50 (OVCAR-3) was > 100 µM (inactive) and the GI50 (OVCAR-4) was > 100 µM (inactive). For the same compound, the GI50 (OVCAR-5) was > 100 µM (inactive), the GI50 (OVCAR-8) was 63.5 µM (inactive) and the GI50 (SF-268) was 86.9 µM (inactive). The GI50 (SF-295) was > 100 µM (inactive), the GI50 (SF-539) was > 100 µM (inactive) and the GI50 (SK-MEL-28) was > 100 µM (inactive). For the same compound, the GI50 (SK-MEL-5) was 65.8 µM (inactive), the GI50 (SK-OV-3) was > 100 µM (inactive) and the GI50 (SN12C) was > 100 µM (inactive). For the same compound, the GI50 (SNB-19) was > 100 µM (inactive), the GI50 (SR) was > 100 µM (inactive) and the GI50 (SW-620) was > 100 µM (inactive). The GI50 (UACC-257) was > 100 µM (inactive), the GI50 (UACC-62) was > 100 µM (inactive) and the GI50 (UO-31) was > 100 µM (inactive).
